{"source": "patent US20180200279A1", "about": "“INHIBITION OF HSV-1-ASSOCIATED CORNEAL NEOVASCULARIZATION USING INHIBITORS OF CYCLIN-DEPENDENT KINASE 9” (XAVIER UNIVERSITY OF LOUISIANA, priority 2014, published 2018)", "key": {"[1]": {"tested_on": "HSV-1 17syn+ ocular infection", "assay": "HSV-1 ocular infection mouse model, combined clinical score (epiphora, inflammation, discharge)", "assay_type": "in vivo, Balb/c mice", "details": "1% TFT, 0.01% flavopiridol, 0.1% DRB drops", "procedure": "The combined clinical score was determined based on epiphora (excess tearing), inflammation and discharge. […], +1=slight manifestations, +2=moderate manifestations, and +3=severe manifestations.\nAll experimental procedures were performed in accordance with the ARVO Resolution for the Use of Animals in Ophthalmic and Vision Research and were approved by the Xavier University Animal Care and Use Committee. Female 20 g Balb/c mice were obtained from Charles River Laboratories. Mice were allowed to equilibrate to their surroundings for 2 weeks and then were anesthetized by intramuscular administration of xylazine (6.6 mg/kg of body weight) and ketamine (100 mg/kg of body weight). The corneas were mildly scarified in a 2×2 cross-hatch pattern and each cornea was inoculated with 5×10^5 PFU of strain HSV 17syn+. […] DNA was collected by swabbing the eyes with filter paper, and the eyes were examined with a slit-lamp on PI days 2, 4, 7, 9, 11, 14, 18 and 25. Average neovascularization/eye was scored using the formula A=(C×0.4×L×π)/2 where C=clock hours of neovascularization; 30° arc is 1 (360° circle with a total of 12); L is the length of the longest neovessel, and A is the area of neovascularization. Students scored (by eye) the animals on the days indicated in a masked fashion using the slit-lamp, and images representative of each group were taken. Clinical scores based on epiphora, inflammation and discharge were calculated where 0=no manifestations, +1=slight manifestations, +2=moderate manifestations, and +3=severe manifestations. Mice were sacrificed with CO2 on day 25 post-infection, and eyes were harvested, sectioned, stained with hematoxylin and eosin (H&E) for histological analysis based on peripheral neovascularization and leukocytic infiltration where 0=clear eyes, 0.5=either peripheral neovascularization or leukocytic infiltration, and 1=both peripheral neovascularization and leukocytic infiltration. Ex ovo chick embryo chorioallantoic membrane collagen angiogenesis assays were performed using methods as previously described (Deryugina E I and Quigley J P. Chapter 2. Chick embryo chorioallantoic membrane models to quantify angiogenesis induced by inflammatory and tumor cells or purified effector molecules. Methods Enzymol. 444:21-41. 2008). Briefly, fertilized embryos (Charles River Laboratories, Charleston, S.C.) were incubated at 37.5° C. for 3 days, removed from their shell using a Dremel tool and placed into a covered weighing boat for 7 further days of incubation. […] Four collagen onplants were added per egg on at least 3 separate eggs. After three additional days of incubation, images were taken of each plug using a mini-Vid camera (LW Scientific; Lawrenceville, Ga.) and quantified in a masked fashion based on the percentage of grids that were positive for newly formed blood vessels.\nFIG. 1B is the combined clinical score for the treatment groups based on epiphora (excess tearing), inflammation, and discharge."}, "HSV-1 17syn+": {"tested_on": "HSV-1 17syn+", "assay": "Real-time PCR of HSV-1 DNA on ocular swabs of infected mice", "assay_type": "in vivo, Balb/c mice", "details": "day 25 post infection; 1% TFT, 0.01% flavopiridol, 0.1% DRB drops; n=10", "procedure": "SYBR Green semi-quantitative real-time PCR was performed on DNA samples eluted from swabs taken from mouse eyes on days 2, 4, 7, 9, 11, 14, 18 and 25 post infection with 5×10^5 PFU/eye HSV-1 17syn+ using primers specific for HSV-1 DNA polymerase.\nAll experimental procedures were performed in accordance with the ARVO Resolution for the Use of Animals in Ophthalmic and Vision Research and were approved by the Xavier University Animal Care and Use Committee. Female 20 g Balb/c mice were obtained from Charles River Laboratories. Mice were allowed to equilibrate to their surroundings for 2 weeks and then were anesthetized by intramuscular administration of xylazine (6.6 mg/kg of body weight) and ketamine (100 mg/kg of body weight). The corneas were mildly scarified in a 2×2 cross-hatch pattern and each cornea was inoculated with 5×10^5 PFU of strain HSV 17syn+. […] DNA was collected by swabbing the eyes with filter paper, and the eyes were examined with a slit-lamp on PI days 2, 4, 7, 9, 11, 14, 18 and 25. Average neovascularization/eye was scored using the formula A=(C×0.4×L×π)/2 where C=clock hours of neovascularization; 30° arc is 1 (360° circle with a total of 12); L is the length of the longest neovessel, and A is the area of neovascularization. Students scored (by eye) the animals on the days indicated in a masked fashion using the slit-lamp, and images representative of each group were taken. Clinical scores based on epiphora, inflammation and discharge were calculated where 0=no manifestations, +1=slight manifestations, +2=moderate manifestations, and +3=severe manifestations. […] Ex ovo chick embryo chorioallantoic membrane collagen angiogenesis assays were performed using methods as previously described (Deryugina E I and Quigley J P. Chapter 2. Chick embryo chorioallantoic membrane models to quantify angiogenesis induced by inflammatory and tumor cells or purified effector molecules. Methods Enzymol. 444:21-41. 2008). […]"}}, "data": [{"smiles": "CN1CC[C@H](c2c(O)cc(O)c3c(=O)cc(-c4ccccc4Cl)oc23)[C@H](O)C1", "note": "[flavopiridol]", "values": [{"measurement": "combined clinical score (epiphora, inflammation, discharge; 0 to +3)", "setting": "[1]; day 11", "value": "0.169±0.248"}, {"measurement": "combined clinical score (epiphora, inflammation, discharge; 0 to +3)", "setting": "[1]; day 25", "value": "0.039±0.177"}, {"measurement": "quantitative real-time PCR score (HSV-1 DNA) on ocular swabs", "setting": "HSV-1 17syn+", "value": "0.039±0.176"}]}]}
